Test [1] has as its target Carbonic anhydrase 9 (Homo sapiens, UniProt Q16790).
Test [2] addresses Carbonic anhydrase 1 (Homo sapiens, UniProt P00915).
Test [3] deals with Carbonic anhydrase 2 (Homo sapiens, UniProt P00918).

The values below come from ChEMBL document CHEMBL1137475, “Design, synthesis, and docking studies of new 1,3,4-thiadiazole-2-thione derivatives with carbonic anhydrase inhibitory activity” (Bioorg Med Chem, 2007).

As usually defined, the Ki is a dissociation constant, usually derived from enzyme kinetics or from competition with a known ligand. A lower Ki goes with higher affinity.

Chain of Carbonic anhydrase 1 (P00915 whole entry): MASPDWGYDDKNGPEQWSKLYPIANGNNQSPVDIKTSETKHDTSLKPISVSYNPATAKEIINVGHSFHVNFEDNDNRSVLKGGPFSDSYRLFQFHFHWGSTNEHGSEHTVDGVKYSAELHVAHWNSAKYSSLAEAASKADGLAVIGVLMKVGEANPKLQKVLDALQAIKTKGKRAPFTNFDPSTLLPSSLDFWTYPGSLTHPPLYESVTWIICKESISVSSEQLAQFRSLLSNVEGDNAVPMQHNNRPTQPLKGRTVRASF

For the compound `CN(C)c1ccccc1/C=N/NC(=O)Nc1n[nH]c(=S)s1`, the inhibitory constant (Ki) in test [1] turned out to be 3.35 µM; in test [2], 125 µM.

Turning to `COc1ccc(/C(C)=N/NC(=O)Nc2n[nH]c(=S)s2)cc1`, the Ki in test [1] amounted to 20 µM; in test [3], 346 µM.

For the compound `NNC(=O)Nc1n[nH]c(=S)s1`, the Ki in test [1] was 9.3 µM. In other words, the single-digit micromolar range.

For the compound `O=C(N/N=C/c1ccc([N+](=O)[O-])cc1)Nc1n[nH]c(=S)s1`, the Ki in test [1] amounted to 10 µM.

As for `COc1cccc(/C=N/NC(=O)Nc2n[nH]c(=S)s2)c1`, in test [1], the Ki amounted to 7.13 µM. The Ki values of the last two compounds are within 1.5-fold of each other.

In test [1], `C/C(=N\NC(=O)Nc1n[nH]c(=S)s1)c1ccc(Br)cc1` returned a Ki of 6.85 µM.

Compound `O=C(N/N=C/c1ccc(F)cc1)Nc1n[nH]c(=S)s1` gave an inhibitory constant (Ki) in test [1] of 7.53 µM.

`C/C(=N\NC(=O)Nc1n[nH]c(=S)s1)c1ccc(Cl)cc1`: the Ki in test [1] is 8.55 µM; in test [2] it was 144 µM.

In turn, `O=C(N/N=C/c1ccc(Cl)cc1)Nc1n[nH]c(=S)s1` yielded a Ki in test [1] of 118 µM.

For `O=C(N/N=C/c1ccc(Br)cc1)Nc1n[nH]c(=S)s1`, the Ki is 22 µM in test [1] and 360 µM in test [3].

The compound `O=C(N/N=C/c1ccco1)Nc1n[nH]c(=S)s1` showed a Ki in test [1] of 5.75 µM. In other words, the single-digit micromolar range.

`C/C(=N\NC(=O)Nc1n[nH]c(=S)s1)c1ccccc1`: in test [1], the inhibition constant (Ki) is 7.44 µM.

`O=C(N/N=C/c1cccnc1)Nc1n[nH]c(=S)s1` came in with a Ki in test [1] of 5.05 µM.

Turning to `COc1ccc(/C=N/NC(=O)Nc2n[nH]c(=S)s2)cc1`, the Ki in test [1] is 24 µM; in test [3], 350 µM.

In turn, `C/C(=N\NC(=O)Nc1n[nH]c(=S)s1)c1ccc(C)cc1` gave a Ki in test [1] of 149 µM.

Regarding `C/C(=N\NC(=O)Nc1n[nH]c(=S)s1)c1ccc([N+](=O)[O-])cc1`, the Ki in test [1] came to 7.54 µM.

In test [1], `O=C(NN=C1C(=O)Nc2ccc([N+](=O)[O-])cc21)Nc1nnc(S)s1` registered a Ki of 1.25 µM. This Ki is about 6-fold lower than that of the compound before.

Take `O=C(N/N=C/c1ccccc1Cl)Nc1n[nH]c(=S)s1`: the Ki was determined as 29 µM in test [1] and 412 µM in test [3].

Consider `O=C(N/N=C/c1ccccc1)Nc1n[nH]c(=S)s1`, for which the Ki in test [1] is 23 µM; in test [3] it was 354 µM.

For the compound `C/C(=N\NC(=O)Nc1n[nH]c(=S)s1)c1ccc(O)cc1`, the inhibition constant (Ki) in test [1] was determined as 21 µM; in test [3] it was 350 µM.

With `O=C(N/N=C/c1ccccc1[N+](=O)[O-])Nc1n[nH]c(=S)s1`, the Ki in test [1] was 24 µM; in test [3], 433 µM; in test [2], 223 µM.

In the case of `O=C(NN=C1C(=O)Nc2ccc(Br)cc21)Nc1nnc(S)s1`, in test [1], the Ki was found to be 7.18 µM.

For `O=C(N/N=C1\C(=O)Nc2ccccc21)Nc1n[nH]c(=S)s1`, the Ki in test [1] is 9.4 µM.

Regarding `COc1cc(/C=N/NC(=O)Nc2n[nH]c(=S)s2)ccc1O`, the Ki in test [1] amounted to 26 µM; in test [3] it was 386 µM.

Regarding `O=C(NN=C(c1ccccc1)c1ccccc1)Nc1n[nH]c(=S)s1`, in test [1], the affinity, expressed as Ki, was 8.43 µM. This lies in the single-digit micromolar range.

As for `O=C(N/N=C/c1cccc(Br)c1)Nc1n[nH]c(=S)s1`, the inhibition constant (Ki) in test [1] was 10.1 µM; in test [3], 236 µM.
